Data published in patent EP0843554B1, “ASCORBYL-PHOSPHORYL-CHOLESTEROL” (AVON PRODUCTS, INC., priority 1996, dated 1997).

Test system: cultured human skin fibroblasts
Experiment: [^3H]-Proline Incorporation Assay (collagen biosynthesis)
Format: cell-based
Settings: fibroblasts incubated with 11.3, 22.5 and 45 µg/ml for 48 hours; radioactive counts of newly synthesized [^3H]-hydroxyproline; numbers only in a chart image
Method: An art-recognized [^3H]-Proline Incorporation Assay was performed with different doses of 3'-(L-ascorbyl-2-phosphoryl)-cholesterol. Juva, Anal. Biochem., Vol. 15, pages 77-83 (1966); Booth, Biochim. Biophys. Acta, Vol. 675, pages 117-122 (1981).
Fibroblasts were incubated with 0 µg/ml, 11.3 µg/ml, 22.5 µg/ml and 45 µg/ml of 3'-(L-ascorbyl-2-phosphoryl)-cholesterol for a total of 48 hours. After the first 24 hours [^3H]-labeled proline was added to the culture. Following the second 24 hour period the cells were harvested and prepared for the collagen biosynthesis assay.
Protease inhibitors were added to prevent degradation of collagen and other proteins. The cell layer was scraped into a solution containing 0.4 M NaCl and 0.01 M Tris (pH 7.5). Extracts were sonicated to disrupt cell membranes. Separate volumes of the cell-containing solution (1 ml each) were dialyzed overnight against several changes of deionised water. The retentate was removed from dialysis and hydrolyzed in 6 N hydrochloric acid at 120°C overnight. The assay was performed using an oxidation process with 2 M chloramine-T. Samples were analyzed for radioactive counts, which represent the amount of newly synthesized [^3H]-hydroxyproline -- an index for new collagen synthesis.

Compound: CC(C)CCC[C@@H](C)[C@H]1CC[C@H]2[C@@H]3CC=C4C[C@@H](OP(=O)(O)OC5=C(O)[C@@H]([C@@H](O)CO)OC5=O)CC[C@]4(C)[C@H]3CC[C@]12C [3'-(L-ascorbyl-2-phosphoryl)-cholesterol]
- production of new collagen: increased production of new collagen by human skin fibroblasts in a dose-dependent manner
